Assay results from patent US20260234147A1 (priority 2023, published 2026).
Where two headings read alike, the source gives them in different places.

How the values were obtained:
[1] = target: hKOR (Homo sapiens, UniProt P41145); experiment: Radioligand binding assay (Eurofins Cerep), [3H]U69,593 displacement
[2] = target: hMOR (Homo sapiens, UniProt P35372); experiment: Radioligand binding assay (Eurofins Cerep), [3H]DAMGO displacement
[3] = target: hDOR (Homo sapiens, UniProt P41143); experiment: Radioligand binding assay (Eurofins Cerep), [3H]DADLE displacement
Chain of hDOR (P41143 whole entry): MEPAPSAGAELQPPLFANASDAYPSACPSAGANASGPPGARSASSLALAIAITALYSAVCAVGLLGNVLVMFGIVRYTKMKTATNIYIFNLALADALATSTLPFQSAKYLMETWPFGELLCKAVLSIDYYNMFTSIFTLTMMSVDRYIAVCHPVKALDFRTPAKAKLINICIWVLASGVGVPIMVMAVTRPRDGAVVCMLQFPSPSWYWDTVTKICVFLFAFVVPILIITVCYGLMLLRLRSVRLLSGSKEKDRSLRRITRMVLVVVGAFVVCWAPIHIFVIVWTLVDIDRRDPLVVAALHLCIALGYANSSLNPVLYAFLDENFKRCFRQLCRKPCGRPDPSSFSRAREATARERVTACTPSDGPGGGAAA

[4] = target: T1, α2A adrenergic receptor (Homo sapiens, UniProt P08913); experiment: Radioligand binding assay (Eurofins Cerep), [3H]RX 821002 displacement
T1 construct: Eurofins Cerep (contract screening)
T1 sequence (P08913 1-465): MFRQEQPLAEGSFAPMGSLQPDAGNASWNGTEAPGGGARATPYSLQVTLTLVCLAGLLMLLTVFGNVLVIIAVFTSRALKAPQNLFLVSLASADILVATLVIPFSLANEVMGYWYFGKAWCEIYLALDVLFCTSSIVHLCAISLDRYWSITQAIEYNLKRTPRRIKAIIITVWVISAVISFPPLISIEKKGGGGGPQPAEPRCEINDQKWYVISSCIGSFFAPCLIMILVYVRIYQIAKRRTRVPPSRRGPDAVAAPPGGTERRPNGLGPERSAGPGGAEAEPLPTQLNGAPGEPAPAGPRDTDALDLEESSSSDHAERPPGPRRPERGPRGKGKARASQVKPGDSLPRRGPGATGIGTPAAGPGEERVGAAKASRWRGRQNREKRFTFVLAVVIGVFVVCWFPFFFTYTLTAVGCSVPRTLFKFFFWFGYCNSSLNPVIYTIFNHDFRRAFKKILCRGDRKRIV

[5] = Table B1′, read-out: KOR Ki ± SEM
[6] = Table B1′, read-out: MOR Ki ± SEM
[7] = Table B1′, read-out: DOR Ki ± SEM
[8] = alpha2A Ki ± SEM (nM), Table B1′
[9] = Table B1′, read-out: alpha2A Ki ± SEM
[10] = Table 3-2, 3 independent experiments, read-out: Ki (nM ± SEM) KOR
[11] = Table 3-2, 3 independent experiments, read-out: Ki (nM ± SEM) MOR
[12] = Table 3-2, 3 independent experiments, read-out: Ki (nM ± SEM) DOR
[13] = Ki (nM ± SEM) a2A-AR, Table 3-2, 3 independent experiments
[14] = Table 3-3, 3 independent experiments, read-out: Ki (nM ± SEM) KOR
[15] = Table 3-3, 3 independent experiments, read-out: Ki (nM ± SEM) MOR
[16] = Table 3-3, 3 independent experiments, read-out: Ki (nM ± SEM) DOR
[17] = Table 3-3, 3 independent experiments, read-out: Ki (nM ± SEM) a2A-AR

Chain of hMOR (P35372 whole entry): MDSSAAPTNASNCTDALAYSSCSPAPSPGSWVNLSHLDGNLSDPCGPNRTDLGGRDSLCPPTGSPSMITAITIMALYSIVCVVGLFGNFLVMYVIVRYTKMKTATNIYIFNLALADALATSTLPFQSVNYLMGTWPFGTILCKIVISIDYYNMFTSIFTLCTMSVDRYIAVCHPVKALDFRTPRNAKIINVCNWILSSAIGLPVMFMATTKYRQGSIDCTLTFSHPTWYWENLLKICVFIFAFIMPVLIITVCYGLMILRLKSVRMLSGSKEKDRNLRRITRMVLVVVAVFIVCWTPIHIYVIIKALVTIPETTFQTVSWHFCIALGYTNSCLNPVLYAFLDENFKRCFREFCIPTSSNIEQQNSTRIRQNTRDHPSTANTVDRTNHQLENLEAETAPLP
Chain of hKOR (P41145 whole entry): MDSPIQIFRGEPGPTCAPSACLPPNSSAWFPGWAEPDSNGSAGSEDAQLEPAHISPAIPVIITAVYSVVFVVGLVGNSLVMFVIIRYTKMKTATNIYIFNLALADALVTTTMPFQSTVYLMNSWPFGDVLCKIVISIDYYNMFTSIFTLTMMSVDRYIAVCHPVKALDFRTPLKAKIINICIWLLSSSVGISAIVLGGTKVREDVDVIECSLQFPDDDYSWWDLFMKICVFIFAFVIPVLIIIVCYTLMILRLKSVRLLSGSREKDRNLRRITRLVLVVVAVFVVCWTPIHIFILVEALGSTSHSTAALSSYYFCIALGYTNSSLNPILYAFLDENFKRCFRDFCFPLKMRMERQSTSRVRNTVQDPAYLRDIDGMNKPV

Which Ki [1, 5] does the source give for COc1ccccc1C1(O)CCN2CCC(=O)CC2C1 (stereo not drawn) here?
The Ki was over 10000 nM.

What about the Ki [2, 6] of the same compound?
Its Ki is over 10000 nM.

And the Ki [3, 7]?
The Ki was over 10000 nM.

What about the Ki [4, 8] of the same compound?
Its Ki is 5750 ± 1170 nM.

Which results are given for COC(=O)CC1CCN2CCC(c3ccccc3OC)=CC2C1 (stereo not drawn)?
Ki [1, 5]: > 10000 nM; Ki [2, 6]: > 10000 nM; Ki [3, 7]: > 10000 nM; Ki [4, 8]: 39 ± 3 nM

With COC(=O)CC1CCN2CC=C(c3ccccc3OC)CC2C1 (stereo not drawn) as the compound, how does the Ki [1, 5] read?
The Ki was over 10000 nM.

What about the Ki [2, 6] of the same compound?
Its Ki is over 10000 nM.

What about the Ki [3, 7] of the same compound?
Its Ki is over 10000 nM.

What about the Ki [4, 9] of the same compound?
The Ki was 15 nM.

For COC(=O)CC1CCN2CCC(c3ccccc3)=CC2C1 (stereo not drawn), which Ki [1, 5] is on record?
Its Ki is 683 ± 142 nM.

And the Ki [2, 6]?
The Ki was 7930 ± 1340 nM.

What about the Ki [3, 7] of the same compound?
Its Ki is over 10000 nM.

And the Ki [4, 9]?
Its Ki is 5 ± 2 nM.

What does the source list for COC(=O)CC1CCN2CC=C(c3ccccc3)CC2C1 (stereo not drawn)?
Ki [1, 5]: 957 ± 188 nM; Ki [2, 6]: 6980 ± 1450 nM; Ki [3, 7]: > 10000 nM; Ki [4, 9]: 7 ± 2 nM

Which results are given for COC(=O)C=C1CCN2CCC(O)(c3ccc(F)cc3)CC2C1 (stereo not drawn)?
Ki [1, 5]: > 10000 nM; Ki [2, 6]: 672 ± 222 nM; Ki [3, 7]: > 10000 nM; Ki [4, 8]: 311 ± 73 nM

How did the Ki [1, 5] turn out when COC(=O)CC1CCN2CCC(O)(c3ccc(F)cc3)CC2C1 (stereo not drawn) was run?
Its Ki is over 10000 nM.

What about the Ki [2, 6] of the same compound?
The Ki was 424 ± 203 nM.

And the Ki [3, 7]?
Its Ki is over 10000 nM.

And the Ki [4, 8]?
The Ki was 240 ± 63 nM.

With COC(=O)CC1CCN2CCC(O)(c3ccccc3OC)CC2C1 (single isomer, unassigned) as the compound, how does the Ki [1, 5] read?
Its Ki is over 10000 nM.

What about the Ki [2, 6] of the same compound?
Its Ki is over 10000 nM.

And the Ki [3, 7]?
The Ki was over 10000 nM.

What about the Ki [4, 8] of the same compound?
The Ki was 3470 ± 1790 nM.

Which results are given for COC=C(C(=O)OC)C1CCN(CCc2c[nH]c3ccc(OC)cc23)CC1 [Compound 3-37]?
Ki [1, 10]: 1300 ± 129 nM; SR: Selectivity Ratio (KiMOR/Kiα2A) ([2]; Table 3-2): 0.22; Ki [2, 11]: 733 ± 144 nM; Ki [3, 12]: > 10000 nM; Ki [4, 13]: 3370 ± 586 nM

For COC(=O)CC1CCN(CCc2c[nH]c3ccc(OC)cc23)CC1 [Compound 3-38], which Ki [1, 10] is on record?
Its Ki is 8070 ± 810 nM.

What about the Ki [2, 11] of the same compound?
The Ki was over 10000 nM.

What about the Ki [3, 12] of the same compound?
Its Ki is over 10000 nM.

And the Ki [4, 13]?
Its Ki is 1590 ± 225 nM.

With COC=C(C(=O)OC)C1CCN(CCc2c[nH]c3cc(OC)ccc23)CC1 [Compound 3-39] as the compound, how does the Ki [1, 10] read?
The Ki was 9450 ± 2970 nM.

And the Ki [2, 11]?
The Ki was over 10000 nM.

What about the Ki [3, 12] of the same compound?
The Ki was over 10000 nM.

And the Ki [4, 13]?
Its Ki is over 10000 nM.

For COC(=O)CC1CCN(CCc2c[nH]c3cc(OC)ccc23)CC1 [Compound 3-40], which Ki [1, 10] is on record?
The Ki was over 10000 nM.

And the Ki [2, 11]?
Its Ki is over 10000 nM.

And the Ki [3, 12]?
The Ki was over 10000 nM.

And the Ki [4, 13]?
Its Ki is 2840 ± 599 nM.

Which Ki [1, 10] does the source give for COC=C(C(=O)OC)C1CCN(CCc2c[nH]c3c(OC)cccc23)CC1 [Compound 3-41] here?
The Ki was over 10000 nM.

And the “SR: Selectivity Ratio (KiMOR/Kiα2A)” value ([2]; Table 3-2)?
Its value is 1.04.

And the Ki [2, 11]?
Its Ki is 5130 ± 8.35 nM.

And the Ki [3, 12]?
Its Ki is over 10000 nM.

What about the Ki [4, 13] of the same compound?
The Ki was 4900 ± 829 nM.

COC(=O)CC1CCN(CCc2c[nH]c3ccccc23)CC1 [Compound 3-43] was tested. Which Ki [1, 14] did it give?
Its Ki is over 10000 nM.

And the Ki [2, 15]?
Its Ki is 8910 ± 1800 nM.

What about the Ki ([3]; read-out: Ki (nM ± SEM) DOR, Table 3-3, 3 independent experiments) of the same compound?
Its Ki is over 10000 nM.

And the Ki ([4]; read-out: Ki (nM ± SEM) a2A-AR, Table 3-3, 3 independent experiments)?
The Ki was 1840 ± 201 nM.

Which Ki [1, 14] does the source give for COC(=O)CC1CCN(CCc2cn(CC(F)(F)F)c3ccccc23)CC1 [Compound 3-44] here?
Its Ki is over 10000 nM.

What about the “SR: Selectivity Ratio (KiMOR/Kiα2A)” value ([2]; Table 3-3) of the same compound?
Its value is 0.76.

What about the Ki [2, 15] of the same compound?
Its Ki is 1480 ± 406 nM.

What about the Ki [3, 16] of the same compound?
The Ki was over 10000 nM.

And the Ki [4, 17]?
Its Ki is 1940 ± 410 nM.

Which Ki [1, 14] does the source give for COC(=O)CC1CCN(CCc2cn(CCc3c[nH]c4ccccc34)c3ccccc23)CC1 [Compound 3-45] here?
Its Ki is over 10000 nM.

And the “SR: Selectivity Ratio (KiMOR/Kiα2A)” value ([2]; Table 3-3)?
Its value is 1.32.

What about the Ki [2, 15] of the same compound?
The Ki was 9280 ± 1730 nM.

And the Ki [3, 16]?
The Ki was over 10000 nM.

And the Ki [4, 17]?
The Ki was 7030 ± 2020 nM.

For COC(=O)CC1CCN(CC(=O)N2CCc3c(OC)cccc32)CC1 [Compound 3-46], which Ki [1, 14] is on record?
The Ki was over 10000 nM.

What about the Ki [2, 15] of the same compound?
Its Ki is over 10000 nM.

And the Ki [3, 16]?
The Ki was over 10000 nM.

What about the Ki [4, 17] of the same compound?
The Ki was 6370 ± 1160 nM.
